Assays:
[1] = Phase I dose escalation, toxicity (CTC v2.0) in patients with advanced solid malignancies; format: in vivo
Protocol: The study was divided into two parts. Part A was an open-label dose-escalation study to define the maximum tolerated dose (MTD). Part B was an enrichment phase in female patients having advanced breast cancer for whom there was no standard therapy available.
AZD3409 was administered continuously starting on day 1 of each cycle of 21 days. A modified Fibonacci schedule was used for dose escalation, starting from 500 mg AZD3409. […] At least three patients were treated at each dose level. The occurrence of a DLT in a patient during the first cycle led to enrolment of three additional patients. Patients with progressive disease were removed from the study and patients who were removed within the first cycle of the study for reasons other than drug-related toxicity were replaced.
Pretreatment evaluation included a complete medical history and physical examination. Measurable and evaluable disease was documented before the start of the study and during the study as a basis for the assessment of clinical activity of the treatment. Tumour response was recorded according to RECIST criteria ([Therasse et al, 2000]). Toxicity was monitored at each visit. […] DLT was defined as any of the following events during the first treatment cycle: grade 3 or 4 anaemia or thrombocytopaenia, febrile neutropaenia grade 3, or grade 4 neutropaenia, grade 3 or 4 biochemical toxicity, grade 2 (or worse) nausea and vomiting despite optimal antiemetic therapy, grade 3 or 4 diarrhoea despite optimal loperamide support, failure to take study medication for 7 days or more within the first treatment cycle due to drug-related toxicity or any CTC grade 3 or 4 nonhaematological toxicity (excluding alopaecia). The MTD was defined as the dose below the dose at which two or three of three, or two or more of six patients experienced DLT during cycle 1.

GGTase-1 = molecular target: GGTase-1; parameters: method as in Stephens et al, 2003; settings: Ki4B-Ras as substrate; ref Stephens et al, 2003; cited from earlier work
FTase = molecular target: FTase; parameters: method as in Stephens et al, 2003; settings: Ki4B-Ras as substrate; ref Stephens et al, 2003; cited from earlier work
[2] = system: H-Ras-transformed mouse 3T3 fibroblasts (Hras5) xenografts; parameters: method as in Stephens et al, 2003; Kelly et al, 2005; settings: mice bearing Hras5 xenografts; ref Stephens et al, 2003; Kelly et al, 2005; cited from earlier work
Calu-6 xenograft = system: Calu-6 xenograft; parameters: method as in unpublished data; settings: Calu-6 xenograft model, ref unpublished data, cited from earlier work
[3] = parameters: method as in Kelly et al, 2005; settings: rats, oral dosing, pilot mass balance study; ref Kelly et al, 2005; cited from earlier work
[4] = system: RT-112 urothelial cells xenografts; parameters: method as in Stephens et al, 2003; Kelly et al, 2005; settings: mice bearing RT-112 xenografts; ref Stephens et al, 2003; Kelly et al, 2005; cited from earlier work
solid malignant tumour = assay: Tumour response (RECIST) in phase I patients; format: in vivo, human
Protocol: Pretreatment evaluation included a complete medical history and physical examination. Measurable and evaluable disease was documented before the start of the study and during the study as a basis for the assessment of clinical activity of the treatment. Tumour response was recorded according to RECIST criteria ([Therasse et al, 2000]). Toxicity was monitored at each visit. All toxicities observed were graded according to the Common Toxicity Criteria, version 2.0 ([National Cancer Institute, 1998]). DLT was defined as any of the following events during the first treatment cycle: grade 3 or 4 anaemia or thrombocytopaenia, febrile neutropaenia grade 3, or grade 4 neutropaenia, grade 3 or 4 biochemical toxicity, grade 2 (or worse) nausea and vomiting despite optimal antiemetic therapy, grade 3 or 4 diarrhoea despite optimal loperamide support, failure to take study medication for 7 days or more within the first treatment cycle due to drug-related toxicity or any CTC grade 3 or 4 nonhaematological toxicity (excluding alopaecia). The MTD was defined as the dose below the dose at which two or three of three, or two or more of six patients experienced DLT during cycle 1.

tumour cells = system: tumour cells; parameters: method as in Kelly et al, 2005; settings: in vitro; corresponds to the μM values; ref Kelly et al, 2005; cited from earlier work
[5] = system: 253J-BV urothelial cells xenografts; parameters: method as in Stephens et al, 2003; Kelly et al, 2005; settings: mice bearing 253J-BV xenografts; ref Stephens et al, 2003; Kelly et al, 2005; cited from earlier work
[6] = healthy male volunteers; earlier trial, no reference given; cited from earlier work
cytochrome P450 = system: cytochrome P450; parameters: method as in unpublished data; settings: once daily oral dosing to rats for 28 days; ref unpublished data; cited from earlier work
[7] = all dose levels, drug-related nonhaematological toxicity
[8] = cycle 1, 250 mg b.i.d. (part B, fed state), 3 patients
[9] = cycle 1, 750 mg b.i.d., 8 patients
[10] = cycle 1, 1250 mg b.i.d., 6 patients
[11] = cycle 1, 1500 mg b.i.d., 2 patients
[12] = cycle 1, 1750 mg b.i.d., 4 patients
[13] = cycle 1, all doses, 29 patients

SMILES: CSCC[C@H](NC(=O)c1cc(NC[C@@H]2C[C@H](S)CN2)ccc1CCc1ccc(F)cc1)C(=O)O [AZD3409 acid]
- chance to suffer from vomiting (grade 1–2) due to the medication ([1]; at maximal AZD3409 acid plasma concentrations up to 140 ng ml^−1, cycle 1, n=22): below 15%
- Ki (GGTase-1): 8 nM
- Ki (FTase): < 1 nM

SMILES: CSCC[C@H](NC(=O)c1cc(NC[C@@H]2C[C@H](SC(=O)c3cccnc3)CN2)ccc1CCc1ccc(F)cc1)C(=O)OC(C)C [AZD3409]
- tumour weight [2]: significant reduction of tumour weight
- reduction of the tumour volume (Calu-6 xenograft; associated with 66% FTase inhibition): 15%
- inhibition of FTase (Calu-6 xenograft): 66%
- given radioactivity excreted in the urine [3]: 1%
- dose-limiting gastrointestinal toxicity (grade 3 diarrhoea, grade 3 dehydration, grade 2/3 nausea, grade 2 vomiting) ([1]; 1250 mg b.i.d.): three out of six patients
- dose-limiting toxicity: unable to continue due to grade 3 diarrhoea and uncontrolled nausea (grade 2), respectively ([1]; 1500 mg b.i.d.): two patients
- dose-limiting toxicity: unable to take the drug due to CTC grade 2 vomiting in spite of antiemetics ([1]; 1750 mg b.i.d.): two patients
- diarrhoea, patients reporting [1, 7]: 41%
- nausea, patients reporting [1, 7]: 55%
- vomiting, patients reporting [1, 7]: 55%
- haematological toxicity ([1]; cycle 1, 29 evaluable patients): No significant haematological toxicity
- Nausea grade 1–2, number of patients [1, 8]: 1
- Vomiting grade 1–2, number of patients [1, 8]: 2
- Anorexia grade 1–2, number of patients ([1]; cycle 1, 500 mg, 3 patients): 1
- Fatigue grade 1–2, number of patients ([1]; cycle 1, 500 mg, 3 patients): 1
- Nausea grade 1–2, number of patients ([1]; cycle 1, 500 mg, 3 patients): 1
- Vomiting grade 1–2, number of patients ([1]; cycle 1, 500 mg, 3 patients): 1
- Abdominal pain grade 1–2, number of patients [1, 9]: 1
- Anorexia grade 1–2, number of patients [1, 9]: 2
- Diarrhoea grade 1–2, number of patients [1, 9]: 3
- Fatigue grade 1–2, number of patients [1, 9]: 2
- Nausea grade 1–2, number of patients [1, 9]: 5
- Vomiting grade 1–2, number of patients [1, 9]: 4
- Diarrhoea grade 1–2, number of patients ([1]; cycle 1, 1000 mg, 3 patients): 3
- Nausea grade 1–2, number of patients ([1]; cycle 1, 1000 mg, 3 patients): 2
- Vomiting grade 1–2, number of patients ([1]; cycle 1, 1000 mg, 3 patients): 2
- Abdominal pain grade 1–2, number of patients [1, 10]: 2
- Anorexia grade 1–2, number of patients [1, 10]: 1
- Diarrhoea grade 1–2, number of patients [1, 10]: 2
- Diarrhoea grade 3–4, number of patients [1, 10]: 1
- Fatigue grade 1–2, number of patients [1, 10]: 1
- Nausea grade 1–2, number of patients [1, 10]: 3
- Nausea grade 3–4, number of patients [1, 10]: 1
- Vomiting grade 1–2, number of patients [1, 10]: 3
- Diarrhoea grade 3–4, number of patients [1, 11]: 1
- Nausea grade 1–2, number of patients [1, 11]: 1
- Vomiting grade 1–2, number of patients [1, 11]: 1
- Anorexia grade 1–2, number of patients [1, 12]: 2
- Diarrhoea grade 1–2, number of patients [1, 12]: 4
- Fatigue grade 1–2, number of patients [1, 12]: 1
- Nausea grade 1–2, number of patients [1, 12]: 3
- Vomiting grade 1–2, number of patients [1, 12]: 3
- Abdominal pain grade 1–2, total [1, 13]: 3 (10) n (%)
- Anorexia grade 1–2, total [1, 13]: 6 (21) n (%)
- Diarrhoea grade 1–2, total [1, 13]: 12 (41) n (%)
- Diarrhoea grade 3–4, total [1, 13]: 2 (7) n (%)
- Fatigue grade 1–2, total [1, 13]: 5 (17) n (%)
- Nausea grade 1–2, total [1, 13]: 16 (55) n (%)
- Nausea grade 3–4, total [1, 13]: 1 (3) n (%)
- Vomiting grade 1–2, total [1, 13]: 16 (55) n (%)
- MTD of part A ([1]; patients, fasted state, continuous oral dosing): 750 mg b.i.d.
- tumour weight [4]: significant reduction of tumour weight
- objective tumour response (solid malignant tumour; 18 evaluable patients after 4–14 weeks of treatment): No objective tumour response was observed
- patients with stable disease (solid malignant tumour; out of 16 patients, after approximately 2 months): 3
- patients with stable disease (solid malignant tumour; three of 18 evaluable patients, stable for 47, 48 and 76 days): 17%
- IC50 inhibition of cell proliferation of tumour cells, converted (tumour cells): 0.035 to 3.5 µg/mL
- tumour weight [5]: significant reduction of tumour weight
- dose at which diarrhoea was dose limiting [6]: 2500 mg once daily
- maximum tolerated single dose [6]: 1750 mg
- changes in cytochrome P450 content or enzyme activity (cytochrome P450): no biologically significant changes
